What was measured:
[1] = target: T1, ATP-dependent translocase ABCB1 (Homo sapiens, UniProt P08183); assay: TP_TRANSPORTER: transepithelial transport (basal to apical) in MDR1-expressing LLC-PK1 cells; format: functional, cell-based; conditions: pig
[2] = target: T1, ATP-dependent translocase ABCB1; assay: TP_TRANSPORTER: cell accumulation in KB-3-1 and KB-V1 cells; format: functional, cell-based; conditions: kb-3-1;kb-v1
[3] = target: T2, ATP-dependent translocase ABCB1 (Mus musculus, UniProt P21447); assay: TP_TRANSPORTER: transepithelial transport (basal to apical) in mdr1a-expressing LLC-PK1 cell; format: functional, cell-based; conditions: pig
T2 sequence (P21447 whole entry): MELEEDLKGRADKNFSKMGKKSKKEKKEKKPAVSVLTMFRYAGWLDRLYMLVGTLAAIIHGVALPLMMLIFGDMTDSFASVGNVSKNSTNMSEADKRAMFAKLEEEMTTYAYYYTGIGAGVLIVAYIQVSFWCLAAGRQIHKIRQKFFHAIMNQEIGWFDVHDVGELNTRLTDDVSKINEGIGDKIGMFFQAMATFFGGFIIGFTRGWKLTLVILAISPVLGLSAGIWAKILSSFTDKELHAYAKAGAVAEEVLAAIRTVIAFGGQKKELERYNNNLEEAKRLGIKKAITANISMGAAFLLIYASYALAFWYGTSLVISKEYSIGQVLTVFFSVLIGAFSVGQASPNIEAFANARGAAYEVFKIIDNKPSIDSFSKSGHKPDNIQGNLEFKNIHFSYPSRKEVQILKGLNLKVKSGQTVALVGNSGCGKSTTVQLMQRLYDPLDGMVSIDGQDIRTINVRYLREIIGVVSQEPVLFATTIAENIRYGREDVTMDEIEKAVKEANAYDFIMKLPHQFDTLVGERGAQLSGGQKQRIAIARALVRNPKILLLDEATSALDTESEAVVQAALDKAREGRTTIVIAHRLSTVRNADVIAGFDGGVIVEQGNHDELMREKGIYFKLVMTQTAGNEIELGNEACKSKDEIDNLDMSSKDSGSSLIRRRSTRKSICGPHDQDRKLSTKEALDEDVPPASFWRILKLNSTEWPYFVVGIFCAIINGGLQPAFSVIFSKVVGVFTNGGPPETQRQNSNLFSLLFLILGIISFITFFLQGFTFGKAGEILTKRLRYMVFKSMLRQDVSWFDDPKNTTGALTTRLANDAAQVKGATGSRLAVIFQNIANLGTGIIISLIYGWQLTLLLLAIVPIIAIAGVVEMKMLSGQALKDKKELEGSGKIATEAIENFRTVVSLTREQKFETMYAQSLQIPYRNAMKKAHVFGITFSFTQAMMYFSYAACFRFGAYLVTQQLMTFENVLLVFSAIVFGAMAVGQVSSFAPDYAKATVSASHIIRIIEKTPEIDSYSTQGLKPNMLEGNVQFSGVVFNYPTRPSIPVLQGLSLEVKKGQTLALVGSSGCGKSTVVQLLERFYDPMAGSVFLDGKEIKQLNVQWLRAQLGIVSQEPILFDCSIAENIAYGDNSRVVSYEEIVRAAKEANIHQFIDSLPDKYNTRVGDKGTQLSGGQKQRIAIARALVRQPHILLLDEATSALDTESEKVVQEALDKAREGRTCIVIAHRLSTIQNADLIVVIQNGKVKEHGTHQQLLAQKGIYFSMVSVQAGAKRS

[4] = target: T2, ATP-dependent translocase ABCB1; assay: TP_TRANSPORTER: increase in plasma concentration in mdr1a(-/-) mouse; format: functional, organism-based; conditions: in vivo
[5] = target: T2, ATP-dependent translocase ABCB1; assay: TP_TRANSPORTER: increase in brain concentration in mdr1a(-/-) mouse; format: functional, organism-based; conditions: in vivo
[6] = target: T2, ATP-dependent translocase ABCB1; assay: TP_TRANSPORTER: no change in plasma concentration in mdr1a(-/-) mouse; format: functional, organism-based; conditions: in vivo
[7] = target: T2, ATP-dependent translocase ABCB1; assay: TP_TRANSPORTER: no change in brain concentration in mdr1a(-/-) mouse; format: functional, organism-based; conditions: in vivo

T1 sequence (P08183 whole entry): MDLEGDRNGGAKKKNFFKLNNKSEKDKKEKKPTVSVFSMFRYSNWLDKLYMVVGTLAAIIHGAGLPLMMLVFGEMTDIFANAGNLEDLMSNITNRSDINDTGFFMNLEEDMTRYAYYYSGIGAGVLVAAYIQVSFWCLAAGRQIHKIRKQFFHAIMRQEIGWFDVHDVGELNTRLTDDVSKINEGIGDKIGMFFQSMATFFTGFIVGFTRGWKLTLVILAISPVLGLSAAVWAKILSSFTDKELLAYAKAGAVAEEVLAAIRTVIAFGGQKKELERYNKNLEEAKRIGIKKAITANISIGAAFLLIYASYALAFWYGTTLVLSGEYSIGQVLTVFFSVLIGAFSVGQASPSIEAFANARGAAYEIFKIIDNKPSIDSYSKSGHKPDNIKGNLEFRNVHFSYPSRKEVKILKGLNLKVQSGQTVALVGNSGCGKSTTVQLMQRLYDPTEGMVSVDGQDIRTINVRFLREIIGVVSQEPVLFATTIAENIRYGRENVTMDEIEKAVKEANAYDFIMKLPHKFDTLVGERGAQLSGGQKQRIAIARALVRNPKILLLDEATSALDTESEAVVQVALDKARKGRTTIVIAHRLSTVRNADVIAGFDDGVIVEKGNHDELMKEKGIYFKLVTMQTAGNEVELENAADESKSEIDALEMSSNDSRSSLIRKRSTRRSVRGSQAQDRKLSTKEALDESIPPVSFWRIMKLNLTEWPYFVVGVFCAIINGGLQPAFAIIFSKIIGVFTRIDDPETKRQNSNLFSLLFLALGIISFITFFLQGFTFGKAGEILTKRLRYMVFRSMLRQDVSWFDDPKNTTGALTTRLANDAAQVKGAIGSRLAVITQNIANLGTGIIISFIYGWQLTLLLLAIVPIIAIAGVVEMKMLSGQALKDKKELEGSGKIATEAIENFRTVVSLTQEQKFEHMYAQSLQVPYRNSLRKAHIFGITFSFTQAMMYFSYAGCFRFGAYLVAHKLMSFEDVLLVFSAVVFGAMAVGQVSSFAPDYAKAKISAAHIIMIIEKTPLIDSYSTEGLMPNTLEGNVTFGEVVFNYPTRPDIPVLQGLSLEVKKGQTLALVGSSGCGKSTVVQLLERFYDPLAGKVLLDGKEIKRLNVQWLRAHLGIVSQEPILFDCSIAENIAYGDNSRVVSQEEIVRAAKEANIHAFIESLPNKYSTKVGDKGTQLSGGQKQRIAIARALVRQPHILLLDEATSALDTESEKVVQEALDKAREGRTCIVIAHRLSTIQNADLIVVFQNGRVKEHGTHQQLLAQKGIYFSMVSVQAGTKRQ

## Cc1nc(N)ccc1CNC(=O)Cn1c(C)cnc(NCCc2ccccc2)c1=O.Cl.Cl.O
[1]
  Activity: substrate [+]
[2]
  Activity: substrate [+]
[3]
  Activity: substrate [+]

## C[C@H](N)c1ccc(N2CCC(c3nc(-c4cccc(C(F)(F)F)c4)c(-c4ccncc4)n3C)CC2)cc1.[O-][Cl+3]([O-])([O-])O
[1]
  Activity: substrate [+]
[2]
  Activity: substrate [+]
[3]
  Activity: substrate [+]
[4]
  Activity: substrate [+]
[5]
  Activity: substrate [+]

## CC(C)(C)NC(=O)[C@@H]1CN(Cc2cc3ccccc3o2)CCN1[C@@H](Cc1ccccc1)[C@@H](O)C[C@@H](Cc1ccccc1)C(=O)NC1c2ccccc2C[C@H]1O (some centres undefined)
[2]
  Activity: substrate [+]
[3]
  Activity: substrate [+]
[4]
  Activity: substrate [+]
[5]
  Activity: substrate [+]

## Cc1cccc(NC(=O)NC2N=C(c3ccccc3)c3ccccc3N(C)C2=O)c1 (centres undefined)
[1]
  Activity: substrate [+]
[2]
  Activity: substrate [+]
[3]
  Activity: substrate [+]
[4]
  Activity: substrate [+]
[5]
  Activity: substrate [+]

## C[C@@H](O)[C@H]1C(=O)N2C(C(=O)[O-])=C(S[C@@H]3CN[C@H](C(=O)Nc4cccc(C(=O)O)c4)C3)[C@H](C)[C@H]12.O.[Na+]
[1]
  Activity: is not a substrate [-]
[2]
  Activity: is not a substrate [-]
[3]
  Activity: is not a substrate [-]

## CC(C)(C)NC(=O)[C@@H]1CN(Cc2cccnc2)CCN1C[C@@H](O)C[C@@H](Cc1ccccc1)C(=O)N[C@H]1c2ccccc2C[C@H]1O.O
[2]
  Activity: substrate [+]
[3]
  Activity: substrate [+]
[4]
  Activity: substrate [+]
[5]
  Activity: substrate [+]

## CN1C(=O)C(NC(=O)c2cc3ccccc3[nH]2)N=C(c2ccccc2)c2ccccc21 (racemic)
[1]
  Activity: is not a substrate [-]
[2]
  Activity: is not a substrate [-]
[3]
  Activity: is not a substrate [-]

## CC[C@H](C)C[C@H](C)CCCCCCCCC(=O)N[C@H]1C[C@@H](O)[C@@H](NCCN)NC(=O)[C@@H]2[C@@H](O)CCN2C(=O)[C@H]([C@H](O)CCN)NC(=O)[C@H]([C@H](O)[C@@H](O)c2ccc(O)cc2)NC(=O)[C@@H]2C[C@@H](O)CN2C(=O)[C@H]([C@@H](C)O)NC1=O [CASPOFUNGIN]
[1]
  Activity: is not a substrate [-]
[2]
  Activity: is not a substrate [-]
[3]
  Activity: is not a substrate [-]

## CN1C(=O)CN=C(c2ccccc2)c2cc(Cl)ccc21 [DIAZEPAM]
[1]
  Activity: is not a substrate [-]
[2]
  Activity: is not a substrate [-]
[3]
  Activity: is not a substrate [-]
[6]
  Activity: is not a substrate [-]
[7]
  Activity: is not a substrate [-]

## N#Cc1ccc(Cn2cncc2CN2CCN(c3cccc(Cl)c3)C(=O)C2)cc1 [L-778123 FREE BASE]
[1]
  Activity: substrate [+]
[2]
  Activity: substrate [+]
[3]
  Activity: substrate [+]

## CC(=O)[C@H]1CC[C@H]2[C@@H]3CCC4=CC(=O)CC[C@]4(C)[C@H]3CC[C@]12C [PROGESTERONE]
[1]
  Activity: substrate [+]
[2]
  Activity: is not a substrate [-]
[3]
  Activity: is not a substrate [-]

## CC[C@]1(O)C[C@@H]2CN(CCc3c([nH]c4ccccc34)[C@@](C(=O)OC)(c3cc4c(cc3OC)N(C)[C@H]3[C@@](O)(C(=O)OC)[C@H](OC(C)=O)[C@]5(CC)C=CCN6CC[C@]43[C@@H]65)C2)C1 [VINBLASTINE]
[2]
  Activity: substrate [+]
[4]
  Activity: substrate [+]
[5]
  Activity: substrate [+]
